SMILES strings stand for the structures. Where a name gives a salt, the structure may show the parent alone. Read-outs that look alike come from different tables or passages of the source.

This experiment concerns HCV RNA replication (replicon cell lines Huh-7, 5.2 and ET). Nature of the experiment: Cell-Based Luciferase Reporter HCV RNA Replication Assay. Conditions: Huh-7, 5.2 or ET replicon cells, luciferase counts after 4 days incubation, read-out: IC50. (In general: In a reporter assay the amount or activity of a reporter protein is the signal.)

As to `CC1(C)CCC(c2cc(N(C(=O)[C@H]3CC[C@H](C)CC3)[C@H]3CC[C@H](F)CC3)c(C(=O)O)s2)CC1` [Compound 83, 5-(4,4-dimethyl-cyclohexyl)-3-[(trans-4-fluoro-cyclohexyl)-(trans-4-methyl-cyclohexanecarbonyl)-amino]-thiophene-2-carboxylic acid], the IC50 (Hepatitis C virus, Huh-7, 96 h) was less than 5 µM.
For the compound `CC1CCC(C(=O)N(c2cc(C3=CCCCC3)sc2C(=O)O)C2CCC3(CC2)CC(=O)N(C)C3)CC1` (stereo not drawn) [Compound 84, 5-cyclohex-1-enyl-3-[(trans-4-methyl-cyclohexanecarbonyl)-cis-(2-methyl-3-oxo-2-aza-spiro[4.5]dec-8-yl)-amino]-thiophene-2-carboxylic acid], the IC50 (Hepatitis C virus, Huh-7, 96 h) is less than 5 µM.
With `CC1CCC(C(=O)N(c2cc(C3CCC(=O)CC3)sc2C(=O)O)C2CCC(O)CC2)CC1` (stereo not drawn) [Compound 86, 3-[(4-trans-hydroxy-cyclohexyl)-(4-trans-methyl-cyclohexanecarbonyl)-amino]-5-(4-oxo-cyclohexyl)-thiophene-2-carboxylic acid], the IC50 (Hepatitis C virus, Huh-7, 96 h) lay within 5 to 25 µM.
Same read-out and setting: in the case of `CC1CCC(C(=O)N(c2cc(C3=CCCCC3)sc2C(=O)O)C2CCN3C(=O)CCC3C2)CC1` (stereo not drawn) [Compound 87, RS-5-cyclohex-1-enyl-3-[(4-trans-methyl-cyclohexanecarbonyl)-(3-oxo-octahydro-indolizin-7-yl)-amino]-thiophene-2-carboxylic acid] it was less than 5 µM.
Regarding `CC1(C)CC=C(c2cc(N(C(=O)[C@H]3CC[C@H](C)CC3)[C@H]3CC[C@@H](n4cncn4)CC3)c(C(=O)O)s2)CC1` [Compound 94, 5-(4,4-dimethyl-cyclohex-1-enyl)-3-[(trans-4-methyl-cyclohexanecarbonyl)-(cis-4-[1,2,4]triazol-1-yl-cyclohexyl)-amino]-thiophene-2-carboxylic acid; hydrochloride], where the note is “Hepatitis C virus, Huh-7, 96 h”, the IC50 was less than 5 µM.
On the same count and under the same terms, in the case of `CC1(C)CC=C(c2cc(N(C(=O)[C@H]3CC[C@H](C)CC3)[C@H]3CC[C@H](n4cncn4)CC3)c(C(=O)O)s2)CC1` [Compound 95, 5-(4,4-dimethyl-cyclohex-1-enyl)-3-[(trans-4-methyl-cyclohexanecarbonyl)-(trans-4-[1,2,4]triazol-1-yl-cyclohexyl)-amino]-thiophene-2-carboxylic acid; hydrochloride] it was less than 5 µM.
In the case of `C[C@H]1CC[C@H](C(=O)N(c2cc(C3=CCCCC3)sc2C(=O)O)C2CCN(c3cncnc3)CC2)CC1` [Compound 96, 5-cyclohex-1-enyl-3-[(trans-4-methyl-cyclohexanecarbonyl)-(1-pyrimidin-5-yl-piperidin-4-yl)-amino]-thiophene-2-carboxylic acid], for the setting “Hepatitis C virus, Huh-7, 96 h”, the IC50 was less than 5 µM.
For the compound `CC1(C)CCC(c2cc(N(C(=O)[C@H]3CC[C@H](C)CC3)C3COCOC3)c(C(=O)O)s2)CC1` [Compound 97, 5-(4,4-Dimethyl-cyclohexyl)-3-[[1,3]dioxan-5-yl-(trans-4-methyl-cyclohexanecarbonyl)-amino]-thiophene-2-carboxylic acid], the IC50 (Hepatitis C virus, Huh-7, 96 h) is less than 5 µM.
For the compound `C[C@H]1CC[C@H](C(=O)N(c2cc(C3=CCCCC3)sc2C(=O)O)C2CCN(C=O)CC2)CC1` [Compound 98, 5-cyclohex-1-enyl-3-[(1-formyl-piperidin-4-yl)-(trans-4-methyl-cyclohexanecarbonyl)-amino]-thiophene-2-carboxylic acid], the IC50 (Hepatitis C virus, Huh-7, 96 h) is less than 5 µM.
As for `CC1CCC(C(=O)N(c2cc(C3=CCCCC3)sc2C(=O)O)C2CCC(C)(C#N)CC2)CC1` (stereo not drawn) [Compound 99, 3-[(cis-4-cyano-4-methyl-cyclohexyl)-(trans-4-methyl-cyclohexanecarbonyl)-amino]-5-cyclohex-1-enyl-thiophene-2-carboxylic acid], the IC50 (Hepatitis C virus, Huh-7, 96 h) was less than 5 µM.
As to `CS(=O)(=O)N1CCC(N(c2cc(C3=CCCCC3)sc2C(=O)O)C(=O)[C@H]2CC[C@H](C)CC2)CC1` [Compound 101, 5-cyclohex-1-enyl-3-[(1-methanesulfonyl-piperidin-4-yl)-(trans-4-methyl-cyclohexanecarbonyl)-amino]-thiophene-2-carboxylic acid], the IC50 (Hepatitis C virus, Huh-7, 96 h) was less than 5 µM.
With `C[C@H]1CC[C@H](C(=O)N(c2cc(C3=CCCCC3)sc2C(=O)O)C2CCN(C#N)CC2)CC1` [Compound 102, 3-[(1-cyano-piperidin-4-yl)-(trans-4-methyl-cyclohexanecarbonyl)-amino]-5-cyclohex-1-enyl-thiophene-2-carboxylic acid], the IC50 (Hepatitis C virus, Huh-7, 96 h) is less than 5 µM.
The same measure, in the same setting: next, `CC1CCC(C(=O)N(c2cc(C3=CCCCC3)sc2C(=O)O)C2CCN(c3ncccn3)CC2)CC1` (stereo not drawn) [Compound 103, 5-cyclohex-1-enyl-3-[(trans, 4-methyl-cyclohexanecarbonyl)-(1-pyrimidin-2-yl-piperidin-4-yl)-amino]-thiophene-2-carboxylic acid]: less than 5 µM.
In the case of `CC1CCC(C(=O)N(c2cc(C3=CCCCC3)sc2C(=O)O)C2CCC(n3ccnn3)CC2)CC1` (stereo not drawn) [Compound 104, 5-cyclohex-1-enyl-3-[(trans-4-methyl-cyclohexanecarbonyl)-(cos-4-[1,2,3]triazol-1-yl-cyclohexyl)-amino]-thiophene-2-carboxylic acid], the IC50 (Hepatitis C virus, Huh-7, 96 h) is less than 5 µM.
As for `CC1CCC(C(=O)N(c2cc(C3=CCCCC3)sc2C(=O)O)C2CCC(n3ccnn3)CC2)CC1` (stereo not drawn) [Compound 105, 5-cyclohex-1-enyl-3-[(trans-4-methyl-cyclohexanecarbonyl)-(trans-4-[1,2,3]triazol-1-cyclohexyl)-amino]-thiophene-2-carboxylic acid], the IC50 is less than 5 µM.
As for `CC1CCC(C(=O)N(c2cc(C3=CCCCC3)sc2C(=O)O)C2CCC(C)(C#N)CC2)CC1` (stereo not drawn) [Compound 106, 3-[(trans-4-cyano-4-methyl-cyclohexyl)-(trans-4-methylcyclohexanecarbonyl)-amino]-5-cyclohex-1-enyl-thiophene-2-carboxylic acid], the IC50 is less than 5 µM.
Take `COCC(COC)N(c1cc(C2=CCCCC2)sc1C(=O)O)C(=O)[C@H]1CC[C@H](C)CC1` [Compound 111, 5-cyclohex-1-enyl-3-[(2-methoxy-1-methoxymethyl-ethyl)-(trans-4-methyl-cyclohexanecarbonyl)-amino]-thiophene-2-carboxylic acid]: the IC50 (Hepatitis C virus, Huh-7, 96 h) was less than 5 µM.
In the case of `COC1CCC(N(C(=O)C2CCC(C)CC2)c2cc(C3CCCCC3)sc2C(=O)O)CC1` (stereo not drawn) [Compound 112, 5-cyclohexyl-3-[(4-trans-methoxy-cyclohexyl)-(4-trans-methyl-cyclohexanecarbonyl)-amino]-thiophene-2-carboxylic acid], where the note is “Hepatitis C virus, Huh-7, 96 h”, the IC50 was less than 5 µM.
Turning to `COC1CCC(N(C(=O)C2CCC(C)CC2)c2cc(C3CCC(=O)CC3)sc2C(=O)O)CC1` (stereo not drawn) [Compound 113, 3-[(4-trans-methoxy-cyclohexyl)-(4-trans-methyl-cyclohexanecarbonyl)-amino]-5-(4-oxo-cyclohexyl)-thiophene-2-carboxylic acid], the IC50 (Hepatitis C virus, Huh-7, 96 h) is less than 5 µM.
Same read-out and setting: in the case of `COCOC1CCC(N(C(=O)C2CCC(C)CC2)c2cc(C3=CCC(C)(C)CC3)sc2C(=O)O)CC1` (stereo not drawn) [Compound 114, 5-(4,4-dimethyl-cyclohex-1-enyl)-3-[(4-trans-methoxymethoxy-cyclohexyl)-(4-trans-methyl-cyclohexanecarbonyl)-amino]-thiophene-2-carboxylic acid] it was less than 5 µM; in that of `CC1CCC(C(=O)N(c2cc(C3=CCCCC3)sc2C(=O)O)C2CC=CCC2)CC1` (stereo not drawn) [Compound 115, RS-5-cyclohex-1-enyl-3-[cyclohex-3-enyl-(4-trans-methyl-cyclohexanecarbonyl)-amino]-thiophene-2-carboxylic acid], less than 5 µM.

As a reminder, the IC50 is the concentration that gives 50% inhibition.
